Patent EP4151203B1, “RAPESEED MEAL EXTRACT, METHOD FOR PREPARING SAME AND USE IN COSMETICS, IN PARTICULAR AS A PRO-PIGMENTING, SLIMMING AGENT” (Lyster, priority 2021, dated 2023)
Values joined by “and” are separate entries in the source; they are usually repeats but may differ in a detail not shown here. Equal entries are not always repeated. Marks after values point to notes of the source that are not given here.

Columns and labels:
[1] = tested on: adipocytes humains normaux; experiment: Lipolytic activity: NEFA released by adipocytes in suspension; format: cell-based, humain; conditions: for NEFA, Moyenne / NEFA: 2 h; for NEFA, Moyenne: mean of 3, p<0.05 vs control; for NEFA: single replicate
Text: Les mesures de l'activité lipolytique de plusieurs compositions d'extrait de tourteau de colza à des concentrations différentes ont été effectuées sur des adipocytes humains normaux de tissu cutané adipeux prélevé sur un adulte de 40 ans. Une suspension des adipocytes humains a été incubée pendant 2 H en présence d'une part des compositions d'extrait à tester et d'autre part du produit de référence (contrôle).
Les compositions de concentrations 0,003% (v/v), 0,01% (v/v), et 0,03% (v/v) d'extrait de tourteau de colza ont été préparées par dilution de la solution 50/50 dans le milieu d'incubation.
À la fin de la période d'incubation, la quantité de NEFA libérés dans le milieu d'incubation a été déterminée à l'aide d'un kit de mesure spectro-colométrique spécifique et sensible.
Le niveau de signification entre le "contrôle" et le "produit de référence" a été évalué à l'aide d'un test t de Student (* : p<0,05).
Le niveau de signification entre le le "contrôle" et chaque "composé testé" a été évalué indépendamment pour chaque composition par une analyse de variance à un facteur (ANOVA à sens unique) suivie d'un test de Holm-Sidak (* : p<0,05).

[2] = tested on: mélanocytes humains normaux; experiment: Propigmenting activity: melanin production by melanocytes (optical density at 405 nm); format: cell-based, humain; conditions: 250 µM
Protocol: Les mesures de l'activité propigmentante (augmentation de la production de mélanine) de plusieurs compositions de l'extrait de tourteau de colza présentant des concentrations différentes ont été effectuée par dosage des mélanocytes humains normaux in vitro.
Les compositions de concentrations 0,03% (v/v), 0,1% (v/v), et 0,3% (v/v) ont été préparées par dilution de la solution 50/50 dans le milieu d'incubation.
Les cultures des mélanocytes normaux d'épiderme humain ont été cultivés en culture monocouche jusqu'à confluence. Puis les mélanocytes ont été incubés pendant 72 heures soit en l'absence de l'extrait à tester (contrôle) soit en présence des différentes compositions de l'extrait à tester. Le produit de référence pour l'inhibition de la synthèse de mélanine était une solution d'acide kojique à 250 µM.
Les quantités de mélanine produite par les mélanocytes ont été déterminées par une méthode spectrophotométrique c'est-à-dire une mesure de densité optique à 405 nm effectuée au moyen d'un spectrophotomètre « Genesys 150 » de la société ThermoFisher Scientific.
Le tableau 7 présente la quantité de mélanine (µg) produite par mg de protéines totales dans le lysat cellulaire monocouche.
Le niveau de signification entre le "contrôle" et la « référence » a été évalué à l'aide d'un test t de Student (* : p<0,05). [Tableau 7]

| SMILES | NEFA, Moyenne ([1]; 10^-3 mol/L) | NEFA ([1]; 10^-3 mol/L) | augmente la lipolyse des adipocytes ([1]; 10^-3 mol/L, increase vs control, p<0.05) | NEFA, Moyenne ([1]; 10^-4 mol/L) | NEFA ([1]; 10^-4 mol/L) | mélanine, % du contrôle ([2]; 72 h) | µg mélanine/mg de protéines, Moyenne ([2]; 72 h, mean of 3, p<0.01 vs control) | µg mélanine/mg de protéines ([2]; 72 h, single replicate) | inhibe la production de mélanine ([2]; inhibition vs control, significant) |
| --- | --- | --- | --- | --- | --- | --- | --- | --- | --- |
| Cn1c(=O)c2c(ncn2C)n(C)c1=O [Caféine, caféine] | 47.9* µM | 41.5 µM and 50.3 µM and 51.9 µM | 41.1% | 37.7* µM | 37.1 µM and 38.8 µM and 37.2 µM | – | – | – | – |
| O=c1cc(CO)occ1O [acide kojique] | – | – | – | – | – | 52.4% | 35.8** µg mélanine/mg de protéines | 45.1 µg mélanine/mg de protéines and 30.3 µg mélanine/mg de protéines and 32.0 µg mélanine/mg de protéines | 47,6% |
